Data reported in US20230148599A1, “FUNGICIDAL MIXTURES CONTAINING PYRAZOLE DERIVATIVES” (FMC Corporation, priority 2020, published 2023).

Key:
Type in all cases: in vivo
Conditions in all cases: 50 ppm, 100 = 100% disease control, 0 = no control
[1] = system: Septoria tritici; experiment: Test A: wheat leaf blotch, preventive spray on wheat seedlings
In short: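 Wheat seedlings sprayed to run-off with compound suspended in acetone/water with 250 ppm PEG400 surfactant, inoculated next day with Septoria tritici spores. Held 48 h saturated at 24 °C, then 17 days at 20 °C; disease rated 0–100% control relative to controls.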

[2] = system: Puccinia recondita f. sp. tritici; experiment: Test B: wheat leaf rust, preventive spray on wheat seedlings
In short: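 Wheat seedlings were sprayed to run-off with compound suspended at ppm concentrations in acetone/water containing 250 ppm PEG400. The next day they were inoculated with Puccinia recondita f. sp. tritici spores, held saturated at 20 °C for 24 h, then kept 7 days at 20 °C. Disease control was rated 0–100% relative to untreated controls.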

[3] = system: Blumeria graminis f. sp. tritici; experiment: Test C: wheat powdery mildew, preventive spray on wheat seedlings
In short: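 Seedlings were sprayed to run-off with compound suspended (ppm) in 50/50 acetone–water containing 250 ppm PEG400, then spore-dust inoculated the following day. After 8 days at 20° C, disease control was rated visually from 0 to 100 against controls.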

[4] = system: Phakopsora pachyrhizi; experiment: Test D: Asian soybean rust, preventive spray on soybean seedlings
In short: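 Compounds in acetone/water (50/50) with 250 ppm PEG400, dosed in ppm, sprayed to run-off on soybean seedlings; inoculated with P. pachyrhizi spores next day. Held 24 h at 22 °C in saturated air, then 8 days at 22 °C; visual rating of disease control, 0–100, relative to untreated controls.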

[5] = system: Botrytis cinerea; experiment: Test E: tomato Botrytis, preventive spray on tomato seedlings
In short: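 Compound suspended in 50/50 acetone/water with 250 ppm PEG400 surfactant and sprayed to run-off on tomato seedlings; Botrytis cinerea spores applied the next day. Incubation 48 h at 20° C in saturated atmosphere, then 3 days at 24° C. Visual rating 0–100% disease control relative to controls.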

[6] = system: Alternaria solani; experiment: Test F: tomato early blight, preventive spray on tomato seedlings
In short: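 Tomato seedlings were sprayed to run-off with compound suspended in acetone/water (50/50) with 250 ppm PEG400 and inoculated with Alternaria solani spores the next day. Plants were held 48 h at 27 °C in saturated humidity, then 3 days at 20 °C. Disease control was rated visually from 0 to 100 against untreated controls.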

Structure (SMILES)	Test A disease control rating [1] [%]	Test B disease control rating [2] [%]	Test C disease control rating [3] [%]	Test D disease control rating [4] [%]	Test E disease control rating [5] [%]	Test F disease control rating [6] [%]
Cc1cc(F)c(Nc2c(-c3ccc(F)cc3F)c(C)nn2C)c([N+](=O)[O-])c1 [compound 178]	100	100	99	97	100	100
COc1ccc(Nc2c(-c3ccc(C#N)cc3F)c(C)nn2C)c([N+](=O)[O-])c1 [compound 179]	100	96	93	0	99	85
COc1ccc(Nc2c(-c3ccc(C#N)cc3Br)c(C)nn2C)c([N+](=O)[O-])c1 [compound 180]	100	98	79	0	99	98
Cc1cc(Cl)c(Nc2c(-c3ccc(F)cc3Br)c(C)nn2C)c([N+](=O)[O-])c1 [compound 181]	100	100	99	78	99	99
COc1ccc(-c2c(C)nn(C)c2Nc2c(F)cc(Br)cc2[N+](=O)[O-])c(Cl)c1 [compound 182]	100	99	76	0	100	99
COc1ccc(-c2c(C)nn(C)c2Nc2c(C)cccc2[N+](=O)[O-])c(Cl)c1 [compound 183]	100	99	78	0	100	58
COc1ccc(-c2c(C)nn(C)c2Nc2c(Cl)cccc2[N+](=O)[O-])c(Cl)c1 [compound 184]	100	100	21	0	100	26
CCc1nn(C)c(Nc2c(F)cc(C)cc2[N+](=O)[O-])c1-c1ccc(F)cc1F [compound 185]	100	100	99	0	96	99
COc1ccc(-c2c(C)nn(C)c2Nc2c(F)cc(OC)cc2[N+](=O)[O-])c(Cl)c1 [compound 186]	100	100	99	94	100	100
COc1ccc(-c2c(C)nn(C)c2Nc2ccc(OC)cc2[N+](=O)[O-])c(Cl)c1 [compound 187]	99	100	91	0	100	100
COc1ccc(-c2c(C)nn(C)c2Nc2c(F)cc(C)cc2[N+](=O)[O-])c(Cl)c1 [compound 188]	100	100	94	84	100	100
Cc1nn(C)c(Nc2ccccc2[N+](=O)[O-])c1-c1ccc(Cl)cc1Cl [compound 189]	99	68	57	0	99	0
Cc1nn(C)c(Nc2ccccc2[N+](=O)[O-])c1-c1ccc(F)cc1F [compound 190]	100	32	91	0	100	9
Cc1nn(C)c(Nc2c(F)cc(Br)cc2[N+](=O)[O-])c1-c1ccc(F)cc1Br [compound 191]	100	100	99	13	100	100
Cc1nn(C)c(Nc2c(F)cccc2[N+](=O)[O-])c1-c1ccc([N+](=O)[O-])cc1Cl [compound 192]	100	99	76	19	99	93
Cc1cc(F)c(Nc2c(-c3c(F)cc(F)cc3Cl)c(C)nn2C)c([N+](=O)[O-])c1 [compound 193]	100	100	100	99	99	100
Cc1cc(F)c(Nc2c(-c3c(F)cc(F)cc3F)c(C)nn2C)c([N+](=O)[O-])c1 [compound 194]	100	100	100	99	99	100
Cc1ccc(Nc2c(-c3c(F)cccc3Cl)c(C)nn2C)c([N+](=O)[O-])c1 [compound 195]	100	98	97	0	98	73
Cc1ccc(Nc2c(-c3c(F)cc(F)cc3Br)c(C)nn2C)c([N+](=O)[O-])c1 [compound 196]	100	99	98	0	98	91
COc1ccc(Nc2c(-c3c(F)cccc3Cl)c(C)nn2C)c([N+](=O)[O-])c1 [compound 197]	100	99	93	0	98	98
Cc1cc(F)c(Nc2c(-c3ccc(C#N)cc3F)c(C)nn2C)c([N+](=O)[O-])c1 [compound 198]	99	99	95	89	99	100
